Literature values, collected in US20240082222A1, “4-CHLORO-N-[2-[(4-CHLOROPHENYL)METHYL]-3-OXO-1,2,4-THIADIAZOL-5-YL]BENZAMIDE FOR USE IN MEDICINE” (Betagenon AB, priority 2021, published 2024).

Assays:
[1] = mice, lumbar disc puncture and postoperative pain models; cited from earlier work
[2] = 1000 mg/day in suspension, day 28, patients with type-2 diabetes; cited from earlier work

SMILES	treatment of pain (mechanical hypersensitivity) [1]	mean Cmax [2] [µg/mL]
O=C(Nc1nc(=O)n(Cc2ccc(Cl)cc2)s1)c1ccc(Cl)cc1 [compound of formula I, 4-chloro-N-[2-[(4-chlorophenyl)methyl]-3-oxo-1,2,4-thiadiazol-5-yl]benzamide]	effective at treating pain	55
CN(C)C(=N)N=C(N)N [metformin, reference compound]	effective at treating pain	–
